Assay results: article PMC6150365, “Simultaneous Determination of Seven Components in Rat Plasma by the UPLC-MS/MS Method and Application of Pharmacokinetic Studies to SimiaoYong’an Decoction” (Molecules : A Journal of Synthetic Chemistry and Natural …, 2017)

Test: in vivo
Conditions: male, Sprague-Dawley, rat, po; for MRT last: MRT(0–t); for MRT inf: MRT(0–∞); for half-life: t1/2

C=C[C@H]1[C@H](O[C@@H]2O[C@H](CO)[C@@H](O)[C@H](O)[C@H]2O)OC=C2C(=O)OCC[C@H]21 [Sweroside, sweroside]
AUC(0-t) (2.15 g/kg): 6900 ± 2660 ng·h/mL | AUC(0-inf) (2.15 g/kg): 7860 ± 4080 ng·h/mL | Cmax (2.15 g/kg): 2920 ± 1770 ng/mL | MRT last (2.15 g/kg): 4.46 ± 1.2 h | MRT inf (2.15 g/kg): 7.5 ± 5.21 h | Tmax (2.15 g/kg): 0.96 ± 0.58 h | half-life (2.15 g/kg): 7.39 ± 6.33 h | AUC(0-t) (8.25 g/kg): 4490 ± 280 ng·h/mL | AUC(0-inf) (8.25 g/kg): 4530 ± 290 ng·h/mL | Cmax (8.25 g/kg): 1970 ± 700 ng/mL | MRT last (8.25 g/kg): 3.3 ± 0.39 h | MRT inf (8.25 g/kg): 3.53 ± 0.29 h | Tmax (8.25 g/kg): 1.33 ± 0.49 h | half-life (8.25 g/kg): 4.14 ± 1.46 h
